{
  "source": "ChEMBL document CHEMBL1201862",
  "about": "“PubChem BioAssay data set” (2004)",
  "key": {"Beta-lactamase [1]": {"target": "T1, Beta-lactamase (Pseudomonas aeruginosa, UniProt Q79MP6)", "experiment": "[…] counterscreen for selective VIM-2 inhibitors: dose response biochemical high throughput screening assay to identify inhibitors of IMP-1 metallo-beta-lactamase."}, "Beta-lactamase [2]": {"target": "Beta-lactamase (Salmonella choleraesuis (strain SC-B67), UniProt Q5J463)", "experiment": "Epi-absorbance-based counterscreen for selective VIM-2 inhibitors: dose response biochemical high throughput screening assay to identify inhibitors of TEM-1 serine-beta-lactamase."}, "Beta-lactamase [3]": {"target": "T1, Beta-lactamase", "experiment": "inhibition of IMP-1 beta-lactamase activity – biochemical, epi-absorbance, selectivity assay for VIM-2 inhibitor project, dose response (AID 1920)"}, "Major prion protein": {"target": "Major prion protein (Homo sapiens, UniProt P04156)", "assay_type": "functional, cell-based"}, "[4]": {"target": "Matrix metalloproteinase-14 (Homo sapiens, UniProt P50281)", "experiment": "Dose Response confirmation of uHTS hits for a small molecule inhibitors of MT1-MMP activation in a fluorescence assay set 1.", "assay_type": "functional"}, "[5]": {"target": "Polyadenylate-binding protein 1 (Homo sapiens, UniProt P11940)", "experiment": "blockers of PABP interaction with poly(A) – biochemical, fluorescence polarization, […] (AID 2014)"}, "Protein skinhead-1": {"target": "T2, Protein skinhead-1 (Caenorhabditis elegans, UniProt P34707)", "T2 sequence (P34707 whole entry)": "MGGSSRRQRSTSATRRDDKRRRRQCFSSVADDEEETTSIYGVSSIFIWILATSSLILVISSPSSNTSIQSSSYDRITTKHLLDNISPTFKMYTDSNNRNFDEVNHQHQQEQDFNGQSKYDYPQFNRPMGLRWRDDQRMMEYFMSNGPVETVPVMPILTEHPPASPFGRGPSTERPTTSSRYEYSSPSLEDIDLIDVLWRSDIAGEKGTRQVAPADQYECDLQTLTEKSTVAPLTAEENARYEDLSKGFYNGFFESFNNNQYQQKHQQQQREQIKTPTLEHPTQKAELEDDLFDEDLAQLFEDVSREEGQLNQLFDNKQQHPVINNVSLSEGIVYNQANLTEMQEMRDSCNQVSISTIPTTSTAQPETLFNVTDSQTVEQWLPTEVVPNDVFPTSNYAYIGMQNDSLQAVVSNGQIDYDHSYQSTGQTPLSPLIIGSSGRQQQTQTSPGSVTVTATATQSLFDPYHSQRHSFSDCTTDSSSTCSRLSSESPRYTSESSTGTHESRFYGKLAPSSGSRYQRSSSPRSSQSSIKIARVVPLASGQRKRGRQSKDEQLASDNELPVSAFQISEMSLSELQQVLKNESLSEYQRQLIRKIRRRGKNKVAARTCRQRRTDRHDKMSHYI", "assay_type": "functional"}, "[6]": {"target": "T3, Rac GTPase-activating protein 1 (Homo sapiens, UniProt Q9H0H5)", "T3 sequence (Q9H0H5 whole entry)": "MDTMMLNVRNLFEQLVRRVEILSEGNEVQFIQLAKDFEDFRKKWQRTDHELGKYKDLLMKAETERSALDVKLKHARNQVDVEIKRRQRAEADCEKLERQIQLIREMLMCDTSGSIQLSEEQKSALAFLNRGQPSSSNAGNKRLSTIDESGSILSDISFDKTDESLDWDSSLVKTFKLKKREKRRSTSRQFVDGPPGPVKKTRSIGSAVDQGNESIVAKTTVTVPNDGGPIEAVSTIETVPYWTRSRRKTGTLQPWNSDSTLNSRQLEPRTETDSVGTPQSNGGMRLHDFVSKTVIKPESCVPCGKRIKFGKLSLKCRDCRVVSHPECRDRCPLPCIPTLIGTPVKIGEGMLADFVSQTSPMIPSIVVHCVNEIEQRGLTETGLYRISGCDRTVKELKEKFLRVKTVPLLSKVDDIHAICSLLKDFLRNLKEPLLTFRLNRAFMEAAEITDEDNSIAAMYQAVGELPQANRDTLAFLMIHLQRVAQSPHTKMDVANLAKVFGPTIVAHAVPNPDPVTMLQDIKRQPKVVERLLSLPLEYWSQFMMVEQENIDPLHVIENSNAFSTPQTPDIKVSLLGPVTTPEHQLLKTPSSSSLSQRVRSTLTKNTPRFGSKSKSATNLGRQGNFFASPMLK", "experiment": "blockers of MgcRacGAP-driven Rac1 GTP hydrolysis – biochemical, ADP Hunter fluorescence, primary and confirmatory, confirmation (AID 624330)", "assay_type": "functional"}, "Nonstructural protein 1": {"target": "Nonstructural protein 1 (Influenza A virus, UniProt Q194T2)", "assay_type": "functional, Influenza A virus (A/California/07/2009(H1N1))"}, "Genome polyprotein": {"target": "Genome polyprotein (dengue virus type 2, UniProt P29990)", "experiment": "flavivirus cap methylation enzyme inhibition – biochemical, confirmation dose response, primary screen (AID 588689)", "assay_type": "functional"}, "[7]": {"experiment": "viability loss in HeLa cells – cytotoxicity control for MgcRacGAP inhibitor project, dose response (AID 624300)", "assay_type": "functional"}, "[8]": {"target": "Eukaryotic translation initiation factor 4H (Homo sapiens, UniProt Q15056)", "experiment": "eIF4H binding inhibition – biochemical, uHTS, fluorescence polarization, translation initiation inhibitor project, primary screen (AID 2012)"}, "[9]": {"experiment": "Counterscreen for inhibitors of Trypanosoma brucei methionyl tRNA synthetase (MetRS): Luminescence-based cell-based high throughput dose response assay to identify compounds that are cytotoxic to Jurkat human T lymphocyte cells.", "assay_type": "functional"}, "[10]": {"target": "T4, Methionyl-tRNA synthetase, putative (Trypanosoma brucei brucei, UniProt Q38C91)", "T4 sequence (Q38C91 whole entry)": "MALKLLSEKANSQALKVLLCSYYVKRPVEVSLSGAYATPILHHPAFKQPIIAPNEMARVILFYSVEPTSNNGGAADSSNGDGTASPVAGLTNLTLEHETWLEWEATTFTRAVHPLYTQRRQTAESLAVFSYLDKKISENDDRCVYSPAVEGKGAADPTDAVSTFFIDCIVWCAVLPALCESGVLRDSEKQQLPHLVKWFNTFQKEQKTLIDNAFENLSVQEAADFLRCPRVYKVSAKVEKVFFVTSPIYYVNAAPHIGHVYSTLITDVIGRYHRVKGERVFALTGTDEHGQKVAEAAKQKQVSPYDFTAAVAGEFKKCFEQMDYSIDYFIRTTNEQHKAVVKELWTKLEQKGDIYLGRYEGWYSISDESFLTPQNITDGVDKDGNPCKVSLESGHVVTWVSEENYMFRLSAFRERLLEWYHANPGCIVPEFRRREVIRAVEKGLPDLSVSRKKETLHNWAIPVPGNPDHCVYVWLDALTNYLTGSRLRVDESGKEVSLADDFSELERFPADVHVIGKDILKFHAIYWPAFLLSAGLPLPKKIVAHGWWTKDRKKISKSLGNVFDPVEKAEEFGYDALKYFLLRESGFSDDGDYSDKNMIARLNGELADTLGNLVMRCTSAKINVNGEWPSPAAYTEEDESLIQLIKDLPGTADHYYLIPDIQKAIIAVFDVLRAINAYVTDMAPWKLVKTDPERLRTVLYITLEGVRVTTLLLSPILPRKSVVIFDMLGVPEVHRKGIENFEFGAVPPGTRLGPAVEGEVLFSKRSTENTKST", "assay_type": "functional, Trypanosoma brucei brucei strain 927/4 GUTat10.1"}, "[11]": {"target": "T4, Methionyl-tRNA synthetase, putative", "assay_type": "functional, Trypanosoma brucei brucei strain 927/4 GUTat10.1", "remark": "listed apart in the source"}, "[12]": {"experiment": "Late stage counterscreen for inhibitors of Trypanosoma brucei methionyl tRNA synthetase (MetRS): Luminescence-based cell-based high throughput dose response assay to identify compounds that are cytotoxic to Jurkat human T lymphocyte cells.", "assay_type": "functional"}, "[13]": {"target": "Tyrosyl-DNA phosphodiesterase 2 (Homo sapiens, UniProt O95551)", "experiment": "potency against TDP2 phosphodiesterase activity – biochemical, epi absorbance, IC50, dose response (AID 743297)"}, "[14]": {"target": "Histone-lysine N-methyltransferase NSD2 (Homo sapiens, UniProt O96028)", "assay_type": "biochemical"}, "[15]": {"experiment": "viability loss in human hepatoma cells – cell-based, CellTiter-Glo luminescence, cherry-pick, set 2, cytotoxicity control, dose response (AID 743395)", "assay_type": "functional"}, "[16]": {"experiment": "general mammalian cell viability loss – activator set, cherry-pick, cytotoxicity control for miR-122 modulator project, dose response (AID 720690);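 also: HEK293T human cells scored for general mammalian cytotoxicity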", "assay_type": "functional, cell-based"}, "[17]": {"experiment": "activation of miR-122 Renilla sensor silencing – cell-based, Huh7 psiCHECK-miR122, Renilla luciferase, cherry-picked, dose response (AID 651956);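 also: huh7 hepatoma cells stably carrying a psiCHECK-2 miR-122 sensor plasmid; renilla luciferase signal reporting endogenous miR-122 activity after 48 h compound exposure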", "assay_type": "functional"}},
  "note": "Calls of active or inactive are those of the source.",
  "data": [
    {"smiles": "CCCCc1cc(=O)oc2c3c(cc(OCC(=O)N4CCC[C@H]4C(=O)O)c12)OC(C)(C)CC3", "values": [
      {"measurement": "IC50", "setting": "Beta-lactamase [1]", "result": "> 59.6 µM (inactive)"},
      {"measurement": "IC50", "setting": "Beta-lactamase [2]", "result": "> 59.6 µM (inactive)"},
      {"measurement": "IC50", "setting": "Beta-lactamase [3]", "result": "> 59.6 µM (inactive)"}
    ]},
    {"smiles": "Fc1cccc2sc(Nc3nc4c(F)cccc4s3)nc12", "values": [
      {"measurement": "IC50", "setting": "cells", "result": "> 138 µM (inactive)"},
      {"measurement": "IC50", "setting": "Major prion protein", "result": "8.31 µM (active)"}
    ]},
    {"smiles": "CC1=C/C(=C(/c2cc(C)c(O)c(Br)c2)c2ccccc2S(=O)(=O)O)C=C(Br)C1=O", "values": [
      {"measurement": "IC50", "setting": "[4]", "result": "18.5 µM (active)"},
      {"measurement": "IC50", "setting": "[5]", "result": "6.81 µM (active)"},
      {"measurement": "IC50", "setting": "Protein skinhead-1", "result": "34.3 µM (active)"},
      {"measurement": "IC50", "setting": "[6]", "result": "63.5 µM (active)"},
      {"measurement": "IC50", "setting": "Nonstructural protein 1", "result": "16.3 µM (active)"},
      {"measurement": "IC50", "setting": "Genome polyprotein", "result": "38 µM (active)"},
      {"measurement": "CC50", "setting": "[7]", "result": "100 µM (active)"},
      {"measurement": "IC50", "setting": "[8]", "result": "8.28 µM (active)"}
    ]},
    {"smiles": "O=C(NCc1nc2ccccc2[nH]1)C1=C[C@@H](c2ccccc2)C[C@@H](OCc2ccc(CO)cc2)O1", "values": [
      {"measurement": "IC50", "setting": "[9]", "result": "81 µM (inactive)"},
      {"measurement": "IC50", "setting": "[10]", "result": "0.835 µM (active)"},
      {"measurement": "IC50", "setting": "[11]", "result": "2.08 µM (active)"},
      {"measurement": "IC50", "setting": "[12]", "result": "> 83.3 µM (inactive)"}
    ]},
    {"smiles": "O=C1C=C(O)c2nc(O)ccc2C1=O", "values": [
      {"measurement": "IC50", "setting": "[13]", "result": "80 µM (inactive)"},
      {"measurement": "AC50", "setting": "[14]", "result": "13.1 µM (active)"}
    ]},
    {"smiles": "COc1cc(NC(=O)c2csc(N)n2)cc(C(=O)Nc2cccc(C(F)(F)F)c2)c1.O=C(O)C(F)(F)F", "values": [
      {"measurement": "AbsAC35_uM", "setting": "[15]", "result": 51.31, "unit": "µM"}
    ]},
    {"smiles": "CCC(=O)N(C)C[C@H]1Oc2cc(C#Cc3ccccc3)ccc2S(=O)(=O)N([C@H](C)CO)C[C@H]1C", "values": [
      {"measurement": "AC50", "setting": "[16]", "result": "30.6 µM (active)"},
      {"measurement": "AC50", "setting": "[17]", "result": "10.1 µM (active)"}
    ]}
  ]
}
